What was measured:
Assay type in all cases: in vivo
[1] = system: velvetleaf (Abutilon theophrasti medicus); assay: Test Example 2: herbicidal effect by soil application to upland field; settings: soil surface spray, upland field soil, 1,000 g active ingredient per hectare, 21st day after application
Method in brief: (§1)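 Dose was 1,000 g active ingredient per hectare, applied as a wettable powder diluted in water and sprayed evenly over the soil of sown, covered pots at a 1,000 L/ha equivalent. Effect was judged by a standard scale 21 d later under greenhouse conditions.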

[2] = system: green foxtail (Setaria viridis (L.) P. Beauv.); assay: as above; settings: soil surface spray, upland field soil, 1,000 g active ingredient per hectare, 21st day after application
Method in brief: as §1

[3] = system: barnyardgrass (Echinochloa crus-galli (L.) P. Beauv. var. crus-galli); assay: as above; settings: soil surface spray, upland field soil, 1,000 g active ingredient per hectare, 21st day after application
Method in brief: as §1

[4] = system: slender amaranth (Amaranthus viridis L.); assay: as above; settings: soil surface spray, upland field soil, 1,000 g active ingredient per hectare, 21st day after application
Method in brief: as §1

[5] = system: velvetleaf (Abutilon theophrasti medicus); assay: Test Example 3: herbicidal effect by application to upland field (foliage treatment); settings: 14th day after application; for herbicidal effect (index), Velvetleaf: foliage treatment, plants grown two weeks, 1,000 g active ingredient per hectare; for herbicidal effect, Velvetleaf: foliage treatment, 1,000 g active ingredient per 1 hectare, greenhouse
Method in brief: (§2)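 Dose 1,000 g active ingredient/ha, sprayed as diluted wettable powder over entire plants two weeks after sowing in field soil. Kept in greenhouse; herbicidal effect graded on a standard scale on day 14.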

[6] = system: green foxtail (Setaria viridis (L.) P. Beauv.); assay: as above; settings: 14th day after application; for herbicidal effect (index), Green Foxtail: foliage treatment, plants grown two weeks, 1,000 g active ingredient per hectare; for herbicidal effect, Green Foxtail: foliage treatment, 1,000 g active ingredient per 1 hectare, greenhouse
Method in brief: as §2

[7] = system: barnyardgrass (Echinochloa crus-galli (L.) P. Beauv. var. crus-galli); assay: as above; settings: 14th day after application; for herbicidal effect (index), Barnyardgrass: foliage treatment, plants grown two weeks, 1,000 g active ingredient per hectare; for herbicidal effect, Barnyardgrass: foliage treatment, 1,000 g active ingredient per 1 hectare, greenhouse
Method in brief: as §2

[8] = system: slender amaranth (Amaranthus viridis L.); assay: as above; settings: 14th day after application; for herbicidal effect (index), Slender Amaranth: foliage treatment, plants grown two weeks, 1,000 g active ingredient per hectare; for herbicidal effect, Slender Amaranth: foliage treatment, 1,000 g active ingredient per 1 hectare, greenhouse
Method in brief: as §2

[9] = system: heartshape false pickerelweed (Monochoria vaginalis (Burm.f.) C.Presl); assay: Test Example 1: herbicidal effect by soil application to paddy field; settings: paddy field soil application; active ingredient 1,000 g per 1 hectare; wettable powder added dropwise to water surface the day after sowing; examined on the 21st day after application
Method in brief: (§3)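 Under greenhouse conditions, seeds sown on puddled paddy soil in 100 cm2 pots under 3 cm of standing water received the test compound; injury was assessed with a standard scoring scheme three weeks (day 21) after treatment.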

[10] = system: early watergrass (Echinochloa oryzicola Vasing); assay: as above; settings: paddy field soil application; active ingredient 1,000 g per 1 hectare; wettable powder added dropwise to water surface the day after sowing; examined on the 21st day after application
Method in brief: as §3

[11] = system: Japanese bulrush (Scirpus juncoides Roxb.); assay: as above; settings: paddy field soil application; active ingredient 1,000 g per 1 hectare; wettable powder added dropwise to water surface the day after sowing; examined on the 21st day after application
Method in brief: as §3

SMILES	herbicidal effect (index), Velvetleaf [1]	herbicidal effect (index), Green Foxtail [2]	herbicidal effect (index), Barnyardgrass [3]	herbicidal effect (index), Slender Amaranth [4]	herbicidal effect (index), Velvetleaf [5]	herbicidal effect (index), Green Foxtail [6]	herbicidal effect (index), Barnyardgrass [7]	herbicidal effect (index), Slender Amaranth [8]	herbicidal effect, Monochoria vaginalis (Burm. f.) C. Presl [9]	herbicidal effect, Echinochloa oryzicola Vasing [10]	herbicidal effect, Scirpus juncoides Roxb. [11]	herbicidal effect, Velvetleaf [5]	herbicidal effect, Green Foxtail [6]	herbicidal effect, Barnyardgrass [7]	herbicidal effect, Slender Amaranth [8]
COCCOCCn1c(C(F)(F)F)ccc(C(=O)C2=C(O)CCCC2=O)c1=O [I-34]	5 (90% or more of herbicidal effect and crop phytotoxicity)	5 (90% or more of herbicidal effect and crop phytotoxicity)	5 (90% or more of herbicidal effect and crop phytotoxicity)	5 (90% or more of herbicidal effect and crop phytotoxicity)	5 (90% or more of herbicidal effect and crop phytotoxicity)	5 (90% or more of herbicidal effect and crop phytotoxicity)	5 (90% or more of herbicidal effect and crop phytotoxicity)	5 (90% or more of herbicidal effect and crop phytotoxicity)	5 (90% or more of herbicidal effect and crop phytotoxicity)	5 (90% or more of herbicidal effect and crop phytotoxicity)	5 (90% or more of herbicidal effect and crop phytotoxicity)	–	–	–	–
O=C1CCCC(O)=C1C(=O)c1ccc(C(F)(F)F)n(NCCCF)c1=O [I-168]	5 (90% or more of herbicidal effect and crop phytotoxicity)	5 (90% or more of herbicidal effect and crop phytotoxicity)	5 (90% or more of herbicidal effect and crop phytotoxicity)	5 (90% or more of herbicidal effect and crop phytotoxicity)	–	–	–	–	5 (90% or more of herbicidal effect and crop phytotoxicity)	5 (90% or more of herbicidal effect and crop phytotoxicity)	5 (90% or more of herbicidal effect and crop phytotoxicity)	5 (90% or more of herbicidal effect and crop phytotoxicity)	5 (90% or more of herbicidal effect and crop phytotoxicity)	5 (90% or more of herbicidal effect and crop phytotoxicity)	5 (90% or more of herbicidal effect and crop phytotoxicity)
Cc1nn(C)c(O)c1C(=O)c1ccc(C(F)(F)F)n(-c2cc(F)cc(F)c2)c1=O [IV-81]	5 (90% or more of herbicidal effect and crop phytotoxicity)	5 (90% or more of herbicidal effect and crop phytotoxicity)	5 (90% or more of herbicidal effect and crop phytotoxicity)	5 (90% or more of herbicidal effect and crop phytotoxicity)	–	–	–	–	5 (90% or more of herbicidal effect and crop phytotoxicity)	5 (90% or more of herbicidal effect and crop phytotoxicity)	3 (50 to less than 70% of herbicidal effect and crop phytotoxicity)	5 (90% or more of herbicidal effect and crop phytotoxicity)	4 (70 to less than 90% of herbicidal effect and crop phytotoxicity)	4 (70 to less than 90% of herbicidal effect and crop phytotoxicity)	5 (90% or more of herbicidal effect and crop phytotoxicity)
Cn1ncc(C(=O)c2ccc(C(F)(F)F)n(-c3ccccc3)c2=O)c1O [IV-62]	5 (90% or more of herbicidal effect and crop phytotoxicity)	5 (90% or more of herbicidal effect and crop phytotoxicity)	5 (90% or more of herbicidal effect and crop phytotoxicity)	5 (90% or more of herbicidal effect and crop phytotoxicity)	–	–	–	–	5 (90% or more of herbicidal effect and crop phytotoxicity)	5 (90% or more of herbicidal effect and crop phytotoxicity)	5 (90% or more of herbicidal effect and crop phytotoxicity)	5 (90% or more of herbicidal effect and crop phytotoxicity)	5 (90% or more of herbicidal effect and crop phytotoxicity)	5 (90% or more of herbicidal effect and crop phytotoxicity)	5 (90% or more of herbicidal effect and crop phytotoxicity)
COCC(C)n1c(C(F)(F)F)ccc(C(=O)C2=C(O)CCCC2=O)c1=O (stereo not drawn) [I-33]	5 (90% or more of herbicidal effect and crop phytotoxicity)	3 (50 to less than 70% of herbicidal effect and crop phytotoxicity)	5 (90% or more of herbicidal effect and crop phytotoxicity)	5 (90% or more of herbicidal effect and crop phytotoxicity)	5 (90% or more of herbicidal effect and crop phytotoxicity)	4 (70 to less than 90% of herbicidal effect and crop phytotoxicity)	5 (90% or more of herbicidal effect and crop phytotoxicity)	5 (90% or more of herbicidal effect and crop phytotoxicity)	5 (90% or more of herbicidal effect and crop phytotoxicity)	5 (90% or more of herbicidal effect and crop phytotoxicity)	5 (90% or more of herbicidal effect and crop phytotoxicity)	–	–	–	–
Cn1c(C(F)F)ccc(C(=O)C2=C(O)CCCC2=O)c1=O [I-221]	5 (90% or more of herbicidal effect and crop phytotoxicity)	3 (50 to less than 70% of herbicidal effect and crop phytotoxicity)	5 (90% or more of herbicidal effect and crop phytotoxicity)	5 (90% or more of herbicidal effect and crop phytotoxicity)	–	–	–	–	5 (90% or more of herbicidal effect and crop phytotoxicity)	5 (90% or more of herbicidal effect and crop phytotoxicity)	5 (90% or more of herbicidal effect and crop phytotoxicity)	5 (90% or more of herbicidal effect and crop phytotoxicity)	4 (70 to less than 90% of herbicidal effect and crop phytotoxicity)	5 (90% or more of herbicidal effect and crop phytotoxicity)	5 (90% or more of herbicidal effect and crop phytotoxicity)

— US8076487B2, “Pyridone derivative and herbicide” (Kumiai Chemical Industry Co., Ltd., priority 2006, dated 2011)
